The results in this text go back to patent publication US20230157996A1, “SMALL-MOLECULE INHIBITOR TARGETING EB VIRUS NUCLEAR ANTIGEN PROTEIN, PREPARATION METHOD AND USE THEREOF” (priority 2020, published 2023).

A value given as a limit tells only on which side of the number the result lay.

This assay has as its system C666-1 cells. Nature of the assay: C666-1 cell viability single concentration (50 μM) inhibition rate (Resazurin). Type of assay: cell-based. The note with it: 50 μM compound, 72 hours, C666-1 cells; for inhibition at 50 µM: Homo sapiens, C6661, 72 h, read-out: C666-1 cell viability single concentration (50 μM) inhibition rate, Ratio* (Inh %). In a few lines:
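EBV-positive C666-1 cells (5×10^3/well), pre-cultured 24 h, were exposed to compound at 50 μmol/L final for 72 h at 37° C, 5% CO2, in duplicate. Viability by resazurin (3 h, ex 560/em 590 nm); inhibition rate computed relative to DMSO control and medium-only blank.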
Background: Alamar Blue is a resazurin reagent that responds to reducing activity.

With `COC(=O)c1cccc(N2CC(Oc3ccc(C(=O)Nc4ccc(F)cc4)cc3)C2)c1-n1cccc1` [Example 267, Methyl 3-(3-(4-((4-fluorophenyl)carbamoyl)phenoxy)azetidin-1-yl)-2-(1H-pyrrol-1-yl)benzoate], the inhibition at 50 µM is less than 10%.
Still for that read-out and setting: the figure for `O=C(Nc1ccc(F)cc1)c1ccc(OC2CN(c3cccc(C(=O)O)c3-n3cccc3)C2)cc1` [Example 268, 3-(3-(4-((4-fluorophenyl)carbamoyl)phenoxy)azetidin-1-yl)-2-(1H-pyrrol-1-yl)benzoic acid] is less than 10%.
Still for that read-out and setting: the figure for `COC(=O)c1cccc(-c2cn(-c3ccc(CO)cc3)nn2)c1-c1ccc2cc[nH]c2c1` [Example 269, Methyl 3-(1-(4-(hydroxymethyl)phenyl)-1H-1,2,3-triazol-4-yl)-2-(1H-indol-6-yl)benzoate] is 30 to 50%; for `COC(=O)c1cccc(C#CN2Cc3ccccc3S2(=O)=O)c1-n1cccc1` [Example 270] it is less than 10%.
Still for that read-out and setting: to `COC(=O)c1cccc(C#CN(Cc2ccccc2)S(=O)(=O)c2ccc(C)cc2)c1-n1cccc1` [Example 271, Methyl 3-(((N-benzyl-4-methylphenyl)sulfonamido)ethynyl)-2-(1H-pyrrol-1-yl)benzoate] belongs greater than 50%; to `COC(=O)c1cccc(C2CC2c2ccccc2)c1-n1cccc1` (centres unmarked) [Example 272, Methyl 3-(2-phenylcyclopropyl)-2-(1H-pyrrol-1-yl)benzoate], 10 to 30%.
Take `COc1ccc(C(O)C23CC(c4cccc(C(=O)O)c4)(C2)C3)cc1` (centres unmarked) [Example 273, 3-(3-(hydroxyl(4-methoxyphenyl)methyl)bicyclo[1. 1.1]pentan-1-yl)benzoic acid]: the inhibition at 50 µM is less than 10%.
On the same count and under the same terms, to `COC(=O)c1cccc(N2CC3(CN(c4ccccc4)C3)C2)c1-n1cccc1` [Example 274, Methyl 3-(6-phenyl-2,6-diazaspiro[3.3]heptan-2-yl)-2-(1H-pyrrol-1-yl)benzoate] belongs less than 10%.
On the same count and under the same terms, to `COC(=O)c1cccc(N2CC3(CN(c4ccccc4N)C3)C2)c1N` [Example 275, Methyl 2-amino-3-(6-(2-aminophenyl)-2,6-diazaspiro[3.3]heptan-2-yl)benzoate] belongs 10 to 30%; to `O=C(O)c1cccc(N2CC(Oc3ccc(CO)cc3)C2)c1-c1ccco1` [Example 276], less than 10%.
Still for that read-out and setting: the figure for `COC(=O)c1cccc(N2CC(Oc3ccc(CO)cc3)C2)c1-c1ccc2ccoc2c1` [Example 277] is 10 to 30%; for `N#Cc1cccc(-c2c(C(=O)O)cccc2N2CC(Oc3ccc(CO)cc3)C2)c1` [Example 278] it is 10 to 30%.
For the compound `COC(=O)c1cccc(N2CC(Oc3ccc(CO)cc3)C2)c1-c1cccc(C(=O)O)c1` [Example 279], the inhibition at 50 µM was in the range of 10 to 30%.
On the same count and under the same terms, the figure for `CS(=O)(=O)Nc1cccc(-c2c(C(=O)O)cccc2N2CC(Oc3ccc(CO)cc3)C2)c1` [Example 280] is less than 10%.
Still for that read-out and setting: the figure for `N#Cc1cc(-c2c(C(=O)O)cccc2N2CC(Oc3ccc(CO)cc3)C2)ccc1F` [Example 281, 3′-cyano-4′-fluoro-6-(3-(4-(hydroxymethyl)phenoxy)azetidin-1-yl)-[1,1′-biphenyl]-2-formic acid] is less than 10%.
The same measure, in the same setting: to `COC(=O)c1cccc(N2CC(Oc3cccc(C(=O)O)c3)C2)c1N` [Example 282, Methyl 2-amino-3-(3-(3-carboxylphenoxy)azetidin-1-yl)benzoate] belongs less than 10%; to `COC(=O)c1cccc(N2CC(Oc3ccc(CNS(=O)(=O)c4ccc(C)cc4)cc3)C2)c1-n1cccc1` [Example 283, Methyl 3-(3-(4-(((4-methylphenyl)sulfonamido)methyl)phenoxy)azetidin-1-yl)-2-(1H-pyrrol-1-yl)benzoate], greater than 50%; to `COC(=O)c1cccc(N2CC(Oc3cc(F)nc(F)c3)C2)c1-n1cccc1` [Example 284, Methyl 3-(3-((2,6-difluoropyridin-4-yl)oxy)azetidin-1-yl)-2-(1H-pyrrol-1-yl)benzoate], less than 10%.
For `O=C(O)c1cccc(N2CC(Oc3cc(F)nc(F)c3)C2)c1-n1cccc1` [Example 285, 3-(3-((2,6-difluoropyridin-4-yl)oxy)azetidin-1-yl)-2-(1H-pyrrol-1-yl)benzoic acid], the inhibition at 50 µM was less than 10%.
The same measure, in the same setting: the figure for `COC(=O)c1cccc(N2CC(Oc3ccc([N+](=O)[O-])cc3)C2)c1-n1cccc1` [Example 286, Methyl 3-(3-(4-nitrophenoxy)azetidin-1-yl)-2-(1H-pyrrol-1-yl)benzoate] is 10 to 30%; for `COC(=O)c1cccc(N2CC(Oc3cccc(-c4csc(NS(C)(=O)=O)n4)c3)C2)c1-n1cccc1` [Example 288, Methyl 3-(3-(3-(2-(methylsulfonamido)thiazol-4-yl)phenoxy)azetidin-1-yl)-2-(1H-pyrrol-1-yl)benzoate] it is less than 10%.
`COc1ccccc1NC(=O)Nc1ccc(OC2CN(c3cccc(C(=O)O)c3-n3cccc3)C2)cc1` [Example 289, 3-(3-(4-(3-(2-methoxyphenyl)ureido)phenoxy)azetidin-1-yl)2-(1H-pyrrol-1-yl)benzoic acid]: the inhibition at 50 µM lay within 10 to 30%.
The same measure, in the same setting: to `COC(=O)c1cccc(N2CC(Oc3ccc(Oc4ccc(C(F)(F)F)cc4)cc3)C2)c1-n1cccc1` [Example 291, Methyl 3-(3-(4-(4-(trifluoromethyl)phenoxy)phenoxy)azetidin-1-yl)2-(1H-pyrrol-1-yl)benzoate] belongs less than 10%; to `COC(=O)c1cccc(N2CC(Oc3ccc(Oc4cccc(C(C)=O)c4)cc3)C2)c1-n1cccc1` [Example 293, Methyl 3-(3-(4-(3-acetylphenoxy)phenoxy)azetidin-1-yl)-2-(1H-pyrrol-1-yl)benzoate], 10 to 30%; to `CC(=O)c1cccc(Oc2ccc(OC3CN(c4cccc(C(=O)O)c4-n4cccc4)C3)cc2)c1` [Example 294, 3-(3-(4-(3-acetylphenoxy)phenoxy)azetidin-1-yl)-2-(1H-pyrrol-1-yl)benzoic acid], less than 10%.
The same measure, in the same setting: to `COC(=O)c1cccc(N2CC(Oc3cccc(NC(=O)Nc4ccc(OC(F)(F)F)cc4)c3)C2)c1-n1cccc1` [Example 295, Methyl 3-(3-(3-(3-(4-(trifluoromethoxy)phenyl)ureido)phenoxy)azetidin-1-yl)-2-(1H-pyrrol-1-yl)benzoate] belongs greater than 50%; to `O=C(Nc1ccc(OC(F)(F)F)cc1)Nc1cccc(OC2CN(c3cccc(C(=O)O)c3-n3cccc3)C2)c1` [Example 296, 3-(3-(3-(3-(4-(trifluoromethoxy)phenyl)ureido)phenoxy)azetidin-1-yl)-2-(1H-pyrrol-1-yl)benzoic acid], less than 10%; to `COC(=O)c1cccc(N2CC(Oc3cccc(CO)c3)C2)c1-n1cccc1` [Example 297, Methyl 3-(3-(3-(hydroxymethyl)phenoxy)azetidin-1-yl)-2-(1H-pyrrol-1-yl)benzoate], 30 to 50%.
The same measure, in the same setting: to `O=C(O)c1cccc(N2CC(Oc3cccc(CO)c3)C2)c1-n1cccc1` [Example 298, 3-(3-(3-(hydroxymethyl)phenoxy)azetidin-1-yl)-2-(1H-pyrrol-1-yl)benzoic acid] belongs less than 10%.
For the compound `COC(=O)c1cccc(N2CC(Oc3ccc(CO)cc3C)C2)c1-n1cccc1` [Example 299, Methyl 3-(3-(4-(hydroxymethyl)-2-methylphenoxy)azetidin-1-yl)-2-(1H-pyrrol-1-yl)benzoate], the inhibition at 50 µM was greater than 50%.
The same measure, in the same setting: to `Cc1cc(CO)ccc1OC1CN(c2cccc(C(=O)O)c2-n2cccc2)C1` [Example 300, 3-(3-(4-(hydroxymethyl)-2-methylphenoxy)azetidin-1-yl)-2-(1H-pyrrol-1-yl)benzoic acid] belongs less than 10%.
For the compound `O=C(O)c1cccc(N2CC(Oc3ccc([N+](=O)[O-])cc3)C2)c1-n1cccc1` [Example 301, 3-(3-(4-nitrophenoxy)azetidin-1-yl)-2-(1H-pyrrol-1-yl)benzoic acid], the “C666-1 cell viability single concentration (50 μM) inhibition rate, Ratio* (Inh %)” value is listed as “++++ (>50% ++++)”.
For `CCNC(=O)c1ccc(OC2CN(c3cccc(C(=O)OC)c3-n3cccc3)C2)cc1` [Example 303, Methyl 3-(3-(4-(ethylcarbamoyl)phenoxy)azetidin-1-yl)-2-(1H-pyrrol-1-yl)benzoate], the inhibition at 50 µM lay within 10 to 30%.
Still for that read-out and setting: to `COC(=O)c1cccc(N2CC(Oc3ccc4c(ccn4S(=O)(=O)c4ccc(C)cc4)c3)C2)c1-n1cccc1` [Example 304, Methyl 3-(3-((1-p-tolylsulfonyl-1H-indol-5-yl)oxy)azetidin-1-yl)-2-(1H-pyrrol-1-yl)benzoate] belongs less than 10%.
On the same count and under the same terms, to `Cc1ccc(S(=O)(=O)n2ccc3cc(OC4CN(c5cccc(C(=O)O)c5-n5cccc5)C4)ccc32)cc1` [Example 305, 3-(3-((1-p-tolylsulfonyl-1H-indol-5-yl)oxy)azetidin-1-yl)-2-(1H-pyrrol-1-yl)benzoic acid] belongs less than 10%; to `COCCOc1ccc(OC2CN(c3cccc(C(=O)OC)c3-n3cccc3)C2)cc1OCCOC` [Example 306, Methyl 3-(3-(3,4-bis(2-methoxyethoxy)phenoxy)azetidin-1-yl)-2-(1H-pyrrol-1-yl)benzoate], less than 10%; to `COCCOc1ccc(OC2CN(c3cccc(C(=O)O)c3-n3cccc3)C2)cc1OCCOC` [Example 307, 3-(3-(3,4-bis(2-methoxyethoxy)phenoxy)azetidin-1-yl)-2-(1H-pyrrol-1-yl)benzoic acid], less than 10%.
Take `COC(=O)c1cccc(N2CC(Oc3ccc(OC4CCCCO4)cc3)C2)c1-n1cccc1` (centres unmarked) [Example 308, Methyl 3-(3-(4-((tetrahydro-2H-pyran-2-yl)oxy)phenoxy)azetidin-1-yl)-2-(1H-pyrrol-1-yl)benzoate]: the inhibition at 50 µM is less than 10%.
